Results as given in patent US20220257595A1, “MACITENTAN FOR USE IN TREATING PORTOPULMONARY HYPERTENSION” (ACTELION PHARMACEUTICALS LTD, priority 2019, published 2022).

Experiments:
[1] = system: patients with PoPH; assay: Post-hoc: liver transplant waitlist mortality risk (PVR categories); type: in vivo, human
Procedure: Post-Hoc, Exploratory Criteria: • Proportion of patients with NT-proBNP decrease from above 300 ng/L to below this threshold • Odds ratio for improvement to a more favorable liver transplant perioperative risk category • Odds ratio for becoming eligible for the MELD exception • Odds ratio for improvement to a more favorable waitlist mortality risk category
Risk categories related to liver transplant (transplant perioperative risk classification, MELD exception eligibility and waitlist mortality risk) were analyzed descriptively by treatment group using shift tables from baseline to Week 12 with categories as defined in Example 1.
LT perioperative risk classification, MELD exception eligibility, and waitlist mortality analyses were performed after the database lock and SDTMs delivery for the Double-Blind period. Number (%) of patients in following categories were summarized and presented in shift tables. The estimated odds ratio for risk improvement and corresponding 95% confidence intervals were obtained from an exact logistic regression (macitentan vs placebo) with factors for treatment and risk category at baseline.
The outcomes of PoPH patients who were granted MELD exception in the US were analyzed. […] Age, initial MELD score and initial PVR were significant predictors of waitlist mortality, although their accuracy was limited. The results were illustrated by defining 4 groups depending on their PVR and MELD score: high PVR (PVR>450 dyn·sec·cm^−5), low PVR (PVR ≤450 dyn·sec·cm^−5), high MELD (MELD >12) or low MELD (MELD ≤12).

[2] = prior nonclinical and clinical studies; cited from earlier work
[3] = system: patients with PoPH; assay: PORTICO: serum NT-proBNP (incl. post-hoc 300 ng/L threshold shift); type: in vivo, human
Procedure: (v) Serum NT-proBNP: A blood sample was drawn at Baseline (Visit 2/Randomization), EOT-DB, and/or EOT-OL (whichever came last) for the analysis of serum NT-proBNP. Serum NT-proBNP samples were shipped to the central laboratory on dry ice as soon as possible after the blood sample had been drawn or stored frozen at −20° C. (−4° F.)±2° C. (±3.6° F.) until the shipment.
Statistical analysis: The change from baseline to Week 12 in mRAP, mPAP, cardiac index, TPR and SVO2 were analyzed on the FAS (with imputation) using an ANCOVA with factors for treatment group, background PAH-specific therapy at baseline (Yes/No as per IXRS, randomization stratification factor), region (Europe/North America/Latin America as per IXRS, randomization stratification factor) and a covariate for baseline corresponding variable. Other RHC variables are listed only. WHO FC is summarized on the FAS (with imputation) by time point and treatment group using frequency tables. […] Worsening was analyzed using a logistic regression model (exact) with covariates for treatment group, background PAH-specific therapy at baseline (Yes/No as per IXRS, randomization stratification factor) and region (Europe/North America/Latin America as per IXRS, randomization stratification factor). […] Change from baseline in 6MWD (up to Week 12) was analyzed using a mixed-effect model repeated measure (MMRM) with factors for treatment group, time point, treatment by time interaction, background PAH-specific therapy at baseline (Yes/No as per IXRS, randomization stratification factor) and region (Europe/North America/Latin America as per IXRS, randomization stratification factor), and covariates for baseline 6MWD and WHO FC. […] The ratio versus baseline in NT-proBNP was log-transformed and analyzed using an ANCOVA with covariates for treatment group, background PAH-specific therapy at baseline (Yes/No as per IXRS, randomization stratification factor), region (Europe/North America/Latin America as per IXRS, randomization stratification factor) and baseline log NT-proBNP. […]

CCCNS(=O)(=O)Nc1ncnc(OCCOc2ncc(Br)cn2)c1-c1ccc(Br)cc1 [macitentan, N-[5-(4-Bromophenyl)-6-[2-[(5-bromo-2-pyrimidinyl)oxy]ethoxy]-4-pyrimidinyl]-N′-propylsulfamide]
PVR risk categories (waitlist mortality): Week 12 Category 2 (PVR > 450 dyn · sec/cm^5) ([1]; Baseline Category 2 (n = 30), Full analysis set, 10 mg, N = 43): 9 n (%)
Odds of changing to the low waitlist mortality risk group, macitentan vs placebo ([1]; Week 12, exact logistic regression): 10.48 times
Patients moving from waitlist high-risk group (PVR >450 dyn·s·cm^−5) to low-risk group ([1]; after 12 weeks, FAS no imputation, 18 patients): 41.9%
PVR risk categories: Between-treatment odds ratio for improvement, OR ([1]; macitentan vs placebo, exact logistic regression, 95% CI 2.381, 66.810, p-value 0.0005): 10.479
Toxicities associated with macitentan treatment [2]: associated with teratogenicity, dose-related anemia/decrease in hemoglobin concentration, and hepatotoxicity
Patients with NT-proBNP above 300 ng/L at baseline decreasing to below threshold after 12 weeks ([3]; 6 of 16 macitentan patients, FAS no imputation, post-hoc): 37.5%
Geometric mean ratio of Week 12 to baseline NT-proBNP ([3]; FAS with imputation, macitentan group): 0.86
NT pro-BNP shift: Week 12 Category 2 ([3]; Total, Full analysis set, 10 mg, N = 43): 9 n (%)
